Several values for one entry are separate records, joined by “and”; a condition that tells them apart may be missing. Equal values may be shown once.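 Method: 48-hour compound exposure of cells in 96-well plates, five concentrations, linear interpolation of endpoints. The concentration for 50% growth inhibition is given as GI50. TGI denotes the concentration required for complete inhibition of growth.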
How the values were obtained:
Assay in all cases: inhibition of tumour cell growth, NCI panel, 48 h
BT-549 breast = test system: BT-549 breast
HCC-2998 colon = test system: HCC-2998 colon
HL-60(TB) leukemia = test system: HL-60(TB) leukemia
LOX IMVI melanoma = test system: LOX IMVI melanoma
NCI-H226 lung = test system: NCI-H226 lung
OVCAR-3 ovarian = test system: OVCAR-3 ovarian
PC-3 prostate = test system: PC-3 prostate
RXF 393 renal = test system: RXF 393 renal
SF-268 CNS = test system: SF-268 CNS
SK-MEL-5 melanoma = test system: SK-MEL-5 melanoma

Structure (SMILES)	TGI (BT-549 breast) [µM]	TGI (HCC-2998 colon) [µM]	TGI (HL-60(TB) leukemia) [µM]	TGI (LOX IMVI melanoma) [µM]	TGI (NCI-H226 lung)	TGI (OVCAR-3 ovarian)	TGI (PC-3 prostate)	TGI (RXF 393 renal)	TGI (SF-268 CNS)	TGI (SK-MEL-5 melanoma)	GI50 (LOX IMVI melanoma)	GI50 (NCI-H226 lung)	GI50 (OVCAR-3 ovarian)	GI50 (PC-3 prostate)	GI50 (SF-268 CNS)	GI50 (BT-549 breast) [µM]	GI50 (HCC-2998 colon) [µM]	GI50 (HL-60(TB) leukemia) [µM]	GI50 (RXF 393 renal)	GI50 (SK-MEL-5 melanoma)
Cc1ccc([N+](=O)[O-])c2c(NCCCN(C)C)ccnc12	> 100	45.5	> 100	> 100	> 100 µM	> 93.1 µM	> 100 µM	> 100 µM	> 100 µM	72.8 µM										
COCC(=O)OC1CCn2c1nc1c2C(=O)C(C)=C(NC(C)=O)C1=O (centres undefined)	24.4	28.7	3.68	13.2	23.5 µM	5.23 µM and 4.82 µM	7.68 µM	5.9 µM and 7.55 µM	9 µM and 22.4 µM	26.8 µM	2.81 µM	9.33 µM	1.9 µM	3.56 µM	3.07 µM					
CNC(=O)c1cc(Oc2ccc(NC(=O)Nc3ccc(Cl)c(OC(F)(F)F)c3)c(F)c2)ccn1	14	7.08	6.53	25.2	21.4 µM	11 µM	19 µM	18.9 µM	14.2 µM	5.46 µM	1.76 µM	2.5 µM	1.78 µM	1.48 µM	2.44 µM	3.17	1.62	1	3.58 µM	1.63 µM
C=C1C(=O)O[C@H]2[C@H]1CC/C(COC(=O)c1cc3cc(OC)ccc3[nH]1)=C\CC[C@@]1(C)O[C@@H]21	2.86	2.91	2.08	1.34	3.94 µM	2.15 µM	3.65 µM	2.39 µM	3.65 µM	3.17 µM	0.3 µM	1.57 µM	0.935 µM	1.83 µM	1.66 µM	1.06	1.54	0.326	1.14 µM	1.74 µM
CNC(=O)c1ccc(-c2cnc3ncc(Cc4ccc5ncccc5c4)n3n2)cc1F	> 100	> 100	> 100	> 100	> 100 µM	> 100 µM	> 100 µM	> 100 µM	> 100 µM	> 100 µM	> 100 µM	34.6 µM	> 100 µM	> 100 µM	83 µM	> 100	> 100	> 100	13.4 µM	> 100 µM
CS(=O)(=O)Nc1ccc(-c2ccc3c(NC(=O)C4CC4)n[nH]c3c2)cc1	> 25	> 25	> 25	> 25	> 25 µM	> 25 µM	> 25 µM	> 25 µM	> 25 µM	> 25 µM	> 25 µM	> 14.9 µM	> 21.2 µM	> 25 µM	> 25 µM	> 19.2	> 25	> 16.7	> 17.7 µM	> 11.9 µM
C=CC(=O)N1CCN(c2ncnc3c(F)c(-c4c(O)cccc4F)c(Cl)cc23)CC1	17.3	32.7	45.6	31	46.2 µM	23.5 µM	30.3 µM	14.7 µM	37.2 µM	26.5 µM	12.6 µM	17 µM	9.02 µM	7.29 µM	11.5 µM	3.87	17.5	6.76	2.27 µM	13.6 µM
CC(=O)[CH-]C(C)=O.CC(=O)[CH-]C(C)=O.N=CC=N.[Sn+2]	8.25	25.2	15.3	2.97	23 µM	9.13 µM	17.6 µM	3.34 µM	10.5 µM	16.9 µM	1.57 µM	9.9 µM	2.86 µM	5.03 µM	3.28 µM	2.76	12.5	2.09	1.53 µM	5.46 µM
CNC(=O)c1cn(C[C@H](F)CCc2ccc(NC(=O)Cc3cc(OC4CC(F)(F)C4)cc(C)n3)nn2)nn1	> 100	> 100	> 100	> 100	> 100 µM		> 100 µM	> 100 µM	> 100 µM	> 100 µM	> 100 µM			> 100 µM	> 100 µM	> 100	> 100	> 100	> 31.5 µM	> 100 µM
CC1=C(C)C(=O)O[C@@H]([C@](C)(O)[C@]2(O)CC[C@@]3(O)[C@@H]4C[C@H]5O[C@]56CC=CC(=O)[C@]6(C)[C@H]4CC[C@]23C)C1	1.45	2.17	1.48	1.38	4.49 µM	0.405 µM	5.97 µM	0.62 µM	2.35 µM	1.43 µM	0.188 µM	0.453 µM	0.0667 µM	0.247 µM	0.424 µM	0.335	0.772	0.0412	0.169 µM	0.269 µM
CC(=O)O[C@H]1C(=O)[C@@]2(C)[C@H]([C@H](OC(=O)c3ccccc3)[C@]3([O-])C[C@H](OC(=O)[C@H]([O-])[C@@H](NC(=O)c4ccccc4)c4ccccc4)C(C)=C1C3(C)C)[C@]1(OC(C)=O)CO[C@@H]1C[C@@H]2[O-].[Fe+3]		0.295	0.301		65 µM and 70.7 µM		65 µM and > 100 µM		45.3 µM and > 100 µM	65 µM and 19.6 µM	0.0219 µM and 0.107 µM	0.227 µM and 0.768 µM	0.0215 µM and 0.0434 µM	0.235 µM and 0.219 µM	0.104 µM and 0.165 µM	0.309	0.0365	0.0639	0.117 µM and 0.0955 µM	0.0521 µM and 0.0683 µM
CC(C)(C)c1nc2c(o1)C(=Nc1ccc(F)cc1)c1ccccc1C2=O	12.9	20.5	> 44.9	13	34.3 µM	7.62 µM	> 100 µM	37.9 µM	> 62.9 µM	3.45 µM										
CCn1c(-c2nonc2N)nc2ccc(F)cc21	> 25	> 25	> 25	> 25	> 25 µM	> 25 µM	> 25 µM	> 25 µM	> 25 µM	> 25 µM	> 25 µM	> 25 µM	> 25 µM	> 25 µM	> 25 µM	> 25	> 25	> 25	> 25 µM	> 25 µM
Clc1ccc(OCc2nnc3n2N=C(c2ccc(Cl)cc2Cl)CS3)c(Cl)c1	59.4	37.2	> 100	31	43.2 µM	73.1 µM	> 100 µM	25.4 µM	66.5 µM	33 µM	14.1 µM	17.6 µM	21.2 µM	29.5 µM	22.9 µM	22.4	20.3	35.6	4.08 µM	15.5 µM
COc1ccccc1C(=O)c1ccc2ccccc2c1	52.7	> 100	21.8	31.7	> 100 µM	39.6 µM	> 100 µM	61 µM	> 100 µM	19.8 µM										
Oc1c(Br)cc(CN(Cc2cc(Br)c(O)c(Br)c2)C2CCCCC2)cc1Br	> 100		> 100	> 100	> 100 µM	> 100 µM	> 100 µM	> 100 µM	> 100 µM	> 100 µM										
FC(F)(F)c1ccc2c(Nc3cccc(C4CC(c5ccccc5)=NN4c4ccc(Cl)cc4)c3)ccnc2c1 (centres undefined)	7.4	4.01	18.8	3.81	36.2 µM	6.02 µM	16.6 µM	20.1 µM	21.5 µM	26.5 µM	1.68 µM	15 µM	2.21 µM	3.77 µM	3.35 µM	2.29	1.96	4.04	4.82 µM	8.77 µM
CCCCCCNc1nc(NCCCCCC)c2[nH]c(NCCCCCC)nc2n1	25.1	26.8	4.22	7.53	34.3 µM	9.44 µM	28.9 µM	17.5 µM	15.5 µM	25.2 µM	2.66 µM	15.4 µM	2.1 µM	9.14 µM	4.36 µM	7.47	12.5	1.58	4.23 µM	12.7 µM
CCCCCC(=O)Oc1ccc(/C(=C(\C)c2ccc(OC)cc2)c2ccc(OCCN3CCCCC3)cc2)cc1	23.2	25.5	17.8	5.22	38.4 µM	25.2 µM	18.7 µM	9.52 µM	26.9 µM	3.57 µM	2.19 µM	17.3 µM	11.6 µM	5.65 µM	11.6 µM	10.7	12.5	3.98	1.8 µM	1.8 µM
COc1ccc2c(c1)[C@@]13CCN4CC5=CCO[C@H]6CC(=O)N2[C@H]1[C@H]6[C@H]5C[C@H]43	> 100	> 100	> 100	> 100	30.9 µM	> 100 µM	> 100 µM	> 100 µM	> 100 µM	> 100 µM										
Cc1c(C(=O)NN)nnn1-c1ccnc2c(C(F)(F)F)cccc12	> 100	> 100	> 100	> 100	> 100 µM	> 100 µM	> 100 µM	> 100 µM	> 100 µM	> 100 µM	> 100 µM	> 100 µM	> 100 µM	> 100 µM	> 100 µM	> 100	> 100	> 100	> 100 µM	> 100 µM
Nc1ccc(SC23CC4CC(CC(C4)C2)C3)cc1	> 100	> 100	> 100	> 100		> 100 µM	> 100 µM	> 100 µM	> 100 µM	> 100 µM										
Cc1ccc(C(=O)CC(Sc2cccc(Cl)c2Cl)c2ccc(Cl)cc2)cc1C (centres undefined)	46.9		> 100	32.2	37.4 µM	31.1 µM	29.2 µM	56.9 µM	48.2 µM	33 µM	13.5 µM	20.5 µM	15.4 µM	15.8 µM	21.3 µM	24.5		30.6	25.8 µM	16.6 µM
NCCN1CCN(c2nccc(-c3ccc4ccccc4c3)n2)CC1	18.2	3.46	5.76	3.31	5.66 µM	5.45 µM	4.36 µM	3.07 µM	3.49 µM	3.05 µM	1.76 µM	2.03 µM	2.36 µM	1.86 µM	1.75 µM	4.89	1.74	2.23	1.46 µM	1.67 µM
CC(=O)n1c(-c2ccc(Cl)cc2)nc2c(c1=O)C(c1ccc(Cl)cc1)c1sc3c(Cl)cccc3c1O2 (centres undefined)	1.89	2.57	0.853	1.91	1.78 µM	1.5 µM	2.69 µM	0.85 µM	3.24 µM	1.32 µM	0.59 µM	0.323 µM	0.402 µM	0.37 µM	0.684 µM	0.373	1.09	0.289	0.251 µM	0.354 µM
Cc1noc(C)c1-c1ccc2[nH]c(=O)n3c2c1OC[C@@H]3c1ccccn1	> 100	> 100	> 100	> 32.1	> 100 µM	> 100 µM	> 100 µM	> 25.3 µM	> 100 µM	> 100 µM	0.581 µM	2.22 µM	3.84 µM	2.88 µM	> 100 µM	15.6	2	0.144	1.26 µM	3.81 µM
COc1ccc2c(-c3cc4ccccc4o3)cc(=O)oc2c1	> 100	> 100	> 100	> 100	> 100 µM	30.4 µM	> 100 µM	53.5 µM	> 94 µM	> 100 µM										
